According to patent US10710980B2, “Aminopyridine derivatives and their use as selective ALK-2 inhibitors” (priority 2016, dated 2020):

What was measured:
ALK3 (aa198-525) = ALK3 (aa198-525) (Homo sapiens (Human), UniProt P36894); assay: ADPGlo biochemical autophosphorylation assay, ALK3; conditions: 15 μm ATP, 60 min at 32° C.
ALK5 (aa162-503) = ALK5 (aa162-503) (Homo sapiens (Human), UniProt P36897); assay: Caliper biochemical peptide phosphorylation assay, ALK5; conditions: 15 μm ATP, 60 min at 30° C.; read-out: ALK5 EPK (IC50)
Chain of ALK5 (aa162-503) (P36897 162-503): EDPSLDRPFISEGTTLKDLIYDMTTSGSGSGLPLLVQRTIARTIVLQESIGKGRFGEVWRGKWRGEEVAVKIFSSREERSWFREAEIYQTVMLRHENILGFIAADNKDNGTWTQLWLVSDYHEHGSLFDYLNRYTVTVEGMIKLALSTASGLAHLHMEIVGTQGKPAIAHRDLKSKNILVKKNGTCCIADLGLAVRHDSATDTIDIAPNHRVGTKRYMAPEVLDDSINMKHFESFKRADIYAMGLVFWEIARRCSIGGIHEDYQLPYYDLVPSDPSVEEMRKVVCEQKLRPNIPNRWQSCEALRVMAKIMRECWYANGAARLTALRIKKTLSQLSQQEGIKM

[1] = biological target: T1, wild-type ALK2 (aa172-499) (Homo sapiens (Human), UniProt Q04771); assay: Caliper biochemical peptide phosphorylation assay, ALK2; conditions: 15 μm ATP, 60 min at 30° C.; read-out: ALK2 EPK (IC50)
T1 sequence (Q04771 172-499): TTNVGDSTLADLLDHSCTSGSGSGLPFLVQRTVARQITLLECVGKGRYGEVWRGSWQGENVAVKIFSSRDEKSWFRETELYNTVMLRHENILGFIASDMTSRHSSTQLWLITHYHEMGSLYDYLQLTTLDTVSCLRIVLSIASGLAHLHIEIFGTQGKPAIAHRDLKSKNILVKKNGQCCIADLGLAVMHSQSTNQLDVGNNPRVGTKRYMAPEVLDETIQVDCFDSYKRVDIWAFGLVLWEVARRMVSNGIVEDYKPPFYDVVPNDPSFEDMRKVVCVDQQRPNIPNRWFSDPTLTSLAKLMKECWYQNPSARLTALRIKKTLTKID

[2] = biological target: T1, wild-type ALK2 (aa172-499); assay: ADPGlo biochemical autophosphorylation assay, ALK2; conditions: 15 μm ATP, 60 min at 32° C.
[3] = system: BMP response element (BRE) luciferase reporter in HuH7 cells, BMP6 stimulated; assay: BMP signaling reporter gene assay; type: cell-based; conditions: Homo sapiens, Huh-7; HuH7 BRE-luciferase, BMP6 100 ng/ml, 5 hours; read-out: MSD BMP RGA IC50
ALK6 (aa168-495) = ALK6 (aa168-495) (Homo sapiens (Human), UniProt O00238); assay: Caliper biochemical peptide phosphorylation assay, ALK6; conditions: 15 μm ATP, 60 min at 30° C.; read-out: ALK6 EPK (IC50)
Chain of ALK6 (aa168-495) (O00238 168-495): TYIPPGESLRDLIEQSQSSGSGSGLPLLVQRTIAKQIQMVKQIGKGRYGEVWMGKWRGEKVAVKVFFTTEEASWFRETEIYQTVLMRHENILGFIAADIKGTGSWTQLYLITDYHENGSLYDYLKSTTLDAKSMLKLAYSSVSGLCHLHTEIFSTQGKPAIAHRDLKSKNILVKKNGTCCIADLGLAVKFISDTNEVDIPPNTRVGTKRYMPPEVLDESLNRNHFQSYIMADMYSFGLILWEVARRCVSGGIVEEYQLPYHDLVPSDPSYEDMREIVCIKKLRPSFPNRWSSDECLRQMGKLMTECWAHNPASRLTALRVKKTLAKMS

ALK1 (aa166-493) = ALK1 (aa166-493) (Homo sapiens (Human), UniProt P37023); assay: Caliper biochemical peptide phosphorylation assay, ALK1; conditions: 15 μm ATP, 60 min at 30° C.; read-out: ALK1 EPK (IC50)
Chain of ALK1 (aa166-493) (P37023 166-493): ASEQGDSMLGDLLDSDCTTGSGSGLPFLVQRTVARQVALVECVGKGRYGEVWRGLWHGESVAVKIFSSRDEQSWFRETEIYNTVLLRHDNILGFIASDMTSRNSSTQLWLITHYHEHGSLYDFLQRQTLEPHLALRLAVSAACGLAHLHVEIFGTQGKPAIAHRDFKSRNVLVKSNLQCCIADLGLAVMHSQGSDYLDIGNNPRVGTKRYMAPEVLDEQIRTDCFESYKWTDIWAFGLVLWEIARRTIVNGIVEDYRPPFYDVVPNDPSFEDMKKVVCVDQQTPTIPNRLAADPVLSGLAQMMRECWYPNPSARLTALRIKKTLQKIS

Chain of ALK3 (aa198-525) (P36894 198-525): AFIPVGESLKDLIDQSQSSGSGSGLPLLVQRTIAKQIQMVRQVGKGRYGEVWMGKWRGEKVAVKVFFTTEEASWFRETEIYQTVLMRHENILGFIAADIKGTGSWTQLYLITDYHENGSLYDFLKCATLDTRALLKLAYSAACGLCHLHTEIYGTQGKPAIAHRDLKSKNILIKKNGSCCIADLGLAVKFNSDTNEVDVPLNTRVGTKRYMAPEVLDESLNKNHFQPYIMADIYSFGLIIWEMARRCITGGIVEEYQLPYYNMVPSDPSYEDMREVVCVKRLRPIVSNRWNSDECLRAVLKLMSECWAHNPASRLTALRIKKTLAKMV

SMILES	IC50 (ALK3 (aa198-525)) [nM]	IC50 (ALK5 (aa162-503)) [µM]	IC50 [1] [nM]	IC50 [2] [nM]	IC50 [3] [nM]	IC50 (ALK6 (aa168-495)) [µM]	IC50 (ALK1 (aa166-493)) [nM]
C[C@]1(O)CC[C@H](NC(=O)c2cc(-c3ccc([C@]45C[C@H]4CN(C4CCC(F)(F)CC4)C5)cc3)cnc2N)CC1 [Example 58, 2-amino-5-(4-((1S,5R)-3-(4,4-difluorocyclohexyl)-3-azabicyclo[3.1.0]hexan-1-yl)phenyl)-N-((1r,4S)-4-hydroxy-4-methylcyclohexyl)nicotinamide]	3720	7.55	32	25	143	8.4	663
C[C@H](c1ccc(-c2cnc(N)c(C(=O)N[C@H]3CC[C@](C)(O)CC3)c2)cc1)N1CC2(COC2)C1 [Example 59, 5-(4-((R)-1-(2-oxa-6-azaspiro[3.3]heptan-6-yl)ethyl)phenyl)-2-amino-N-((1r,4R)-4-hydroxy-4-methylcyclohexyl)nicotinamide]	2700	9.1	33	24	405	7.7	770
Nc1ncc(-c2ccc([C@]34C[C@H]3CN(C3COC3)C4)cc2)cc1C(=O)NC12CCC(O)(CC1)CC2 [Example 63, 2-amino-N-(4-hydroxybicyclo[2.2.2]octan-1-yl)-5-(4-((1S,5R)-3-(oxetan-3-yl)-3-azabicyclo[3.1.0]hexan-1-yl)phenyl)nicotinamide]	1800	6.7	57	91	390	3.5	940
Nc1ncc(-c2ccc([C@]34C[C@H]3CN(CC(F)(F)F)C4)cc2)cc1C(=O)N[C@H]1CC[C@H](O)CC1 [Example 67, 2-amino-N-((1r,4S)-4-hydroxycyclohexyl)-5-(4-((1S,5R)-3-(2,2,2-trifluoroethyl)-3-azabicyclo[3.1.0]hexan-1-yl)phenyl)nicotinamide]	1900	10	50	22	1160	8.7	180
C[C@H](c1ccc(-c2cnc(N)c(C(=O)NC34CC5CC(CC(O)(C5)C3)C4)c2)cc1)N1CC2(COC2)C1 [Example 68, 5-(4-((R)-1-(2-oxa-6-azaspiro[3.3]heptan-6-yl)ethyl)phenyl)-2-amino-N-((1r,3R)-3-hydroxyadamantan-1-yl)nicotinamide]	8000	10	49	34	950	10	2500
Nc1ncc(-c2ccc(C(=O)N3CCOCC3)cc2)cc1C(=O)NC1CCCCC1 [Example 69, 2-amino-N-cyclohexyl-5-(4-(morpholine-4-carbonyl)phenyl)nicotinamide]	3100	5.2	52	41	1100	9	1100
Nc1ncc(-c2ccc([C@@]34C[C@@H]3CN(CC3COC3)C4)cc2)cc1C(=O)N[C@H]1CC[C@H](O)CC1 [Example 70, 2-amino-N-((1r,4R)-4-hydroxycyclohexyl)-5-(4-((1R,5S)-3-(oxetan-3-ylmethyl)-3-azabicyclo[3.1.0]hexan-1-yl)phenyl)nicotinamide]	2850	9.4	68	20	513	8.75	305
CC(C)N1C[C@@H]2C[C@]2(c2ccc(-c3cnc(N)c(C(=O)N[C@H]4CC[C@@H](O)CC4)c3)cc2)C1 [Example 71, 2-amino-N-((1s,4R)-4-hydroxycyclohexyl)-5-(4-((1S,5R)-3-isopropyl-3-azabicyclo[3.1.0]hexan-1-yl)phenyl)nicotinamide]	2900	3	65	22	86	5.8	490

The remaining compounds from weak to strong by IC50 (ALK3 (aa198-525)), led by results:

IC50 (ALK3 (aa198-525)) [nM]	IC50 (ALK5 (aa162-503)) [µM]	IC50 [1] [nM]	IC50 [2] [nM]	IC50 [3] [nM]	IC50 (ALK6 (aa168-495)) [µM]	IC50 (ALK1 (aa166-493)) [nM]	SMILES
13200	10	70	64	550	10	2500	C[C@@H]1CCCN1Cc1ccc(-c2cnc(N)c(C(=O)N[C@H]3CC[C@](C)(O)CC3)c2)c(F)c1F [Example 74, 2-amino-5-(2,3-difluoro-4-(((R)-2-methylpyrrolidin-1-yl)methyl)phenyl)-N-((1r,4R)-4-hydroxy-4-methylcyclohexyl)nicotinamide]
9900	5.8	30	28	285	10	930	C[C@@H]1CCCN1Cc1ccc(-c2cnc(N)c(C(=O)N[C@H]3CC[C@](C)(O)CC3)c2)c(F)c1 [Example 56, 2-amino-5-(2-fluoro-4-(((R)-2-methylpyrrolidin-1-yl)methyl)phenyl)-N-((1r,4R)-4-hydroxy-4-methylcyclohexyl)nicotinamide]
2440	5.03	30	22	543	2.9	627	C[C@H](c1ccc(-c2cnc(N)c(C(=O)N[C@H]3CC[C@H](O)CC3)c2)c(Cl)c1)N1CC2(COC2)C1 [Example 55, 5-(4-((R)-1-(2-oxa-6-azaspiro[3.3]heptan-6-yl)ethyl)-2-chlorophenyl)-2-amino-N-((1r,4R)-4-hydroxycyclohexyl)nicotinamide]
2400	1.7	44	82	415	10	580	CN1CCN(CCNC(=O)c2ccc(-c3cnc(N)c(C(=O)NC4CCCCC4)c3)cc2)CC1 [Example 65, 2-amino-N-cyclohexyl-5-(4-((2-(4-methylpiperazin-1-yl)ethyl)carbamoyl)phenyl)nicotinamide]
2200	7.5	63	110	380	3.8	1000	Nc1ncc(-c2ccc([C@@]34C[C@@H]3CN(C3COC3)C4)cc2)cc1C(=O)NC12CCC(O)(CC1)CC2 [Example 64, 2-amino-N-(4-hydroxybicyclo[2.2.2]octan-1-yl)-5-(4-((1R,5S)-3-(oxetan-3-yl)-3-azabicyclo[3.1.0]hexan-1-yl)phenyl)nicotinamide]
2100	7.2	35	43	2300	20.2	940	Nc1ncc(-c2ccc(N3CCCCC3)cc2)cc1C(=O)NC1CCCCC1 [Example 61, 2-amino-N-cyclohexyl-5-(4-(piperidin-1-yl)phenyl)nicotinamide]
1800	4.6	140	11	330	7.7	210	COCCN1C[C@H]2C[C@@]2(c2ccc(-c3cnc(N)c(C(=O)N[C@H]4CC[C@H](O)CC4)c3)cc2)C1 [Example 75, 2-amino-N-((1r,4R)-4-hydroxycyclohexyl)-5-(4-((1R,5S)-3-(2-methoxyethyl)-3-azabicyclo[3.1.0]hexan-1-yl)phenyl)nicotinamide]
1200	2	32	13	50	2.5	190	C#CCN1C[C@@H]2C[C@]2(c2ccc(-c3cnc(N)c(C(=O)N[C@H]4CC[C@H](O)CC4)c3)cc2)C1 [Example 53, 2-amino-N-((1r,4S)-4-hydroxycyclohexyl)-5-(4-((1S,5R)-3-(prop-2-yn-1-yl)-3-azabicyclo[3.1.0]hexan-1-yl)phenyl)nicotinamide]
1200	10	56	15	910	6.2	190	Nc1ncc(-c2ccc([C@]34C[C@H]3CN(C(CF)CF)C4)cc2)cc1C(=O)N[C@H]1CC[C@H](O)CC1 [Example 66, 2-amino-5-(4-((1S,5R)-3-(1,3-difluoropropan-2-yl)-3-azabicyclo[3.1.0]hexan-1-yl)phenyl)-N-((1r,4S)-4-hydroxycyclohexyl)nicotinamide]
990	6.3	42	11	84	6.3	170	CC#CCN1C[C@H]2C[C@@]2(c2ccc(-c3cnc(N)c(C(=O)N[C@H]4CC[C@H](O)CC4)c3)cc2)C1 [Example 60, 2-amino-5-(4-((1R,5S)-3-(but-2-yn-1-yl)-3-azabicyclo[3.1.0]hexan-1-yl)phenyl)-N-((1r,4R)-4-hydroxycyclohexyl)nicotinamide]
920	5.3	33	11	395	3.5	140	C#CCN1C[C@H]2C[C@@]2(c2ccc(-c3cnc(N)c(C(=O)N[C@H]4CC[C@H](O)CC4)c3)cc2)C1 [Example 54, 2-amino-N-((1r,4R)-4-hydroxycyclohexyl)-5-(4-((1R,5S)-3-(prop-2-yn-1-yl)-3-azabicyclo[3.1.0]hexan-1-yl)phenyl)nicotinamide]
